Paper PMC8836905, “Structural and Biochemical Analysis of the Furan Aldehyde Reductase YugJ from Bacillus subtilis” (International Journal of Molecular Sciences, 2022)
One block for each compound: values may come before it.

Tests used:
YugJ [1] = target: T1, YugJ (Bacillus spizizenii, UniProt Z9GGM4DFS4); experiment: X-ray crystal structure; type: binding
T1 construct: full-length residues 1-387; N-terminal His6 tag removed with thrombin; E. coli BL21(DE3); homodimer

YugJ [2] = target: T1, YugJ; experiment: NADPH oxidation at […] nm, HMF reduction; type: biochemical; details: 3 mM HMF, 0.2 mM NADPH, Ni2+-bound YugJ, 50 mM HEPES pH 7.4, 150 mM NaCl, 23 °C; presumed competitive
[3] = target: YugJ from Bacillus subtilis (furan aldehyde reductase) (B. subtilis subsp. spizizenii) (UniProt O05239); experiment: SEC; gel filtration on Superdex 200 10/300 in 20 mM Tris, pH 8.0, 150 mM NaCl, 5 mM β-mercaptoethanol; eluted between 44 and 158 kDa standards

Sequence of YugJ from Bacillus subtilis (furan aldehyde reductase) (O05239 whole entry): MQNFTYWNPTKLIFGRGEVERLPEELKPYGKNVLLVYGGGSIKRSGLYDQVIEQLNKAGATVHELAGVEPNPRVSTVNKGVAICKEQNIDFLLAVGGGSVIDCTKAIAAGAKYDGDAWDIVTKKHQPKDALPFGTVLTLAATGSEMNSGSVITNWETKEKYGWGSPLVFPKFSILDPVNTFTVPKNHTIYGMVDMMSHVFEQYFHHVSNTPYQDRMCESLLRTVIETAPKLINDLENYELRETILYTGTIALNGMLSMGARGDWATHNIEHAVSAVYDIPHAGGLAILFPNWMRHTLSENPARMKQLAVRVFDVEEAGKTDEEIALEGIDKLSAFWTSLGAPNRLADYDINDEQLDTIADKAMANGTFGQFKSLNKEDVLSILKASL

Compound: NC(=O)c1ccc[n+]([C@@H]2O[C@H](COP(=O)(O)OP(=O)(O)OC[C@H]3O[C@@H](n4cnc5c(N)ncnc54)[C@H](OP(=O)(O)O)[C@@H]3O)[C@@H](O)[C@H]2O)c1 [NADP]
X-ray crystal structure (YugJ [1]; 1.65 Å with nitrate (7W9Z), 1.93 Å with Ni2+, nicotinamide disordered (7W9Y), interdomain cleft): we determined the crystal structures of YugJ in complex with NADP in two crystal forms

% inhibition at 360 mM lithium nitrate (YugJ [2]): ~ 75%
Compound: O=[N+]([O-])O [nitrate]
X-ray crystal structure (YugJ [1]; 1.65 Å, with NADP, 0.3 M ammonium nitrate in crystallisation, pH 6.5, near nicotinamide ring, putative substrate site): nitrate ion forms hydrogen bonds with the nicotinamide-linked ribose moiety of NADP

stoichiometry N [3]: 2
Compound: YugJ from Bacillus subtilis (furan aldehyde reductase) (from UniProt O05239 1-387) (enzyme)
